Assay results: PMC3417242 (Journal of medicinal chemistry, 2012)
Where two headings read alike, the source gives them in different places.

Experiments:
H146 cell line [1] = assay: Cell death induction by trypan blue assay; type: cell-based, Human; conditions: 24 h
H146 cell line [2] = assay: Western blotting of caspase-3 and PARP cleavage in cells; type: cell-based, Human; conditions: 24 h
Bcl-xL [3] = biological target: T1, Bcl-xL (Homo sapiens, UniProt Q07817); assay: Fluorescence polarization-based; type: binding
[4] = test system: H146 xenograft tumor tissues; assay: In vivo pharmacodynamic; design: species or system SCID mice; conditions: at its maximum tolerated dose (data not shown)
Bcl-xL [5] = biological target: T1, Bcl-xL; conditions: read-out: Ki, binding to Bcl-xL; previously reported; cited from earlier work
[6] = test system: H146 small-cell lung cancer cell line; assay: Cell growth inhibition, H146; type: cell-based, Human
[7] = test system: H1417 small-cell lung cancer cell line; assay: Cell growth inhibition, H1417; type: cell-based, Human
Bcl-2 [8] = biological target: T2, Bcl-2 (Homo sapiens, UniProt P10415); assay: Fluorescence polarization-based; type: binding; conditions: for times less potent than 12 in binding to Bcl-2: compared with compound 12
[9] = test system: H146, H1417 and H1963 cancer cell lines; type: cell-based, Human
Bcl-2 [10] = biological target: T2, Bcl-2; assay: Cell-free mitochondrial functional assay, Bcl-2; conditions: compared with compound 1
H146 cancer cells = assay: Release of cytochrome C from mitochondria in cells; type: cell-based, Human; conditions: for Release of cytochrome C and cleavage of PARP at 30 nM: 2 h, H146 cells; for Release of cytochrome C from mitochondria in H146 cells: treatment as short as 2 h
SCID mice = assay: Toxicity in SCID mice; type: in vivo; conditions: 25 mg/kg, daily intravenous dosing, five days a week for 2 weeks
H146 xenograft model = assay: In vivo efficacy study, H146 xenograft model; conditions: 25 mg/kg daily i.v. 5 days a week for 2 weeks
[11] = test system: H1963 small-cell lung cancer cell line; assay: Cell growth inhibition, H1963; type: cell-based; conditions: read-out: Cell Growth Inhibition (IC50 ± SD) H1963

T2 sequence (P10415 whole entry): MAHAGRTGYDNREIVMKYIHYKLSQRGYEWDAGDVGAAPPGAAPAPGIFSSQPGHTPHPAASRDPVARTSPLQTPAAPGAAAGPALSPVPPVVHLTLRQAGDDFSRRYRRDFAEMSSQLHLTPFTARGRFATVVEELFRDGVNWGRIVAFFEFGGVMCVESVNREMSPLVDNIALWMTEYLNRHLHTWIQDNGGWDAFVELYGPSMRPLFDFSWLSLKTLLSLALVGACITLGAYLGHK
T1 sequence (Q07817 whole entry): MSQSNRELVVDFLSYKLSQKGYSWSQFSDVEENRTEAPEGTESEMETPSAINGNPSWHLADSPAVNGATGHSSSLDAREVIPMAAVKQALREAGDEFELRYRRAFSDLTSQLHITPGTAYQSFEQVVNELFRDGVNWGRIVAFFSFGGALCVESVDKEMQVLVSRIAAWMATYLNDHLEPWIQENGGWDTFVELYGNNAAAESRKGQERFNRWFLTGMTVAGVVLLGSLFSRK

Molecule: CN(C)CC[C@H](CSc1ccccc1)Nc1ccc(S(=O)(=O)NC(=O)c2ccc(N3CCN(Cc4ccccc4-c4ccc(Cl)cc4)CC3)cc2)cc1[N+](=O)[O-] [Compound 1, reference compound]
- Cell death induction in H146 (H146 cell line [1]): effectively induce cell death in H146 in a dose-dependent manner
- Cleavage of caspase-3 and PARP in H146 (H146 cell line [2]): induce cleavage of caspase-3 and poly (ADP- ribose) polymerase (PARP) in a dose-dependent manner

Molecule: CCc1c(-c2ccc(Cl)cc2)c(-c2cccc(N3CCN(c4ccc(NS(=O)(=O)c5ccc(N[C@H](CCN(C)C)CSc6ccccc6)c([N+](=O)[O-])c5)cc4)CC3)c2)c(C(=O)O)n1C [Compound 6]
- Ki (Bcl-xL [3]; read-out: Binding Affinities Bcl-xL Ki ± SD, FP competitive binding): < 0.001 µM
- Apoptosis induction in H146 xenograft tumor tissues [4]: fails to induce robust apoptosis
- Ki (Bcl-xL [5]): < 0.001 µM

Molecule: CN1CCN(CCCNC(=O)c2c(-c3ccccc3)c(-c3ccc(Cl)cc3)cn2CC[C@H](O)CO)CC1 [Compound 7, reference compound]
- IC50 ([6]; Homo sapiens, NCI-H146, read-out: Cell Growth Inhibition (IC50 ± SD) H146): > 10 µM
- IC50 ([7]; Homo sapiens, NCI-H1417, read-out: Cell Growth Inhibition (IC50 ± SD) H1417): > 10 µM

Molecule: Cc1c(C(=O)NCCCN2CCN(C)CC2)c(-c2ccccc2)c(-c2ccc(Cl)cc2)n1C [Compound 8, 5-(4-Chlorophenyl)-1,2-dimethyl-N-(3-(4-methylpiperazin-1-yl)propyl)-4-phenyl-1H-pyrrole-3-carboxamide]
- times more potent than 7 in binding to Bcl-2 (Bcl-2 [8]; Ki compared with compound 7): 2 times
- times more potent than 7 in binding to Bcl-xL (Bcl-xL [3]; Ki compared with compound 7): 2 times
- Cellular activity (cell growth inhibition) [9]: minimal cellular activity

Molecule: Cc1c(C(=O)NCCCN2CCN(C)CC2)c(-c2cccc(N3CCN(c4ccc(NS(=O)(=O)c5ccc(N[C@H](CCN(C)C)CSc6ccccc6)c([N+](=O)[O-])c5)cc4)CC3)c2)c(-c2ccc(Cl)cc2)n1C [Compound 10, (R)-5-(4-Chlorophenyl)-4-(3-(4-(4-(4-((4-(dimethylamino)-1-(phenylthio)butan-2-yl)amino)-3-nitrophenylsulfonamido)phenyl)piperazin-1-yl)phenyl)-1,2-dimethyl-N-(3-(4-methylpiperazin-1-yl)propyl)-1H-pyrrole-3-carboxamide]
- times less potent than 1 in the Bcl-2 functional assay (Bcl-2 [10]): 3 times

Molecule: CNC(=O)c1c(-c2cccc(N3CCN(c4ccc(NS(=O)(=O)c5ccc(N[C@H](CCN(C)C)CSc6ccccc6)c([N+](=O)[O-])c5)cc4)CC3)c2)c(-c2ccc(Cl)cc2)n(C)c1C [Compound 11, (R)-5-(4-Chlorophenyl)-4-(3-(4-(4-(4-((4-(dimethylamino)-1-(phenylthio)butan-2-yl)amino)-3-nitrophenylsulfonamido)phenyl)piperazin-1-yl)phenyl)-N,1,2-trimethyl-1H-pyrrole-3-carboxamide]
- times more potent than compound 10 in cell growth inhibition [9]: 2–4 times

Molecule: Cc1c(C(=O)O)c(-c2cccc(N3CCN(c4ccc(NS(=O)(=O)c5ccc(N[C@H](CCN(C)C)CSc6ccccc6)c([N+](=O)[O-])c5)cc4)CC3)c2)c(-c2ccc(Cl)cc2)n1C [Compound 12, (R)-5-(4-Chlorophenyl)-4-(3-(4-(4-(4-((4-(dimethylamino)-1-(phenylthio)butan-2-yl)amino)-3-nitrophenylsulfonamido)phenyl)piperazin-1-yl)phenyl)-1,2-dimethyl-1H-pyrrole-3-carboxylic acid]
- Cell death induction in H146 (H146 cell line [1]): effectively induce cell death in H146 in a dose-dependent manner
- Cleavage of caspase-3 and PARP in H146 (H146 cell line [2]): induce cleavage of caspase-3 and poly (ADP- ribose) polymerase (PARP) in a dose-dependent manner
- times more potent than compound 10 in cell growth inhibition [9]: 2–4 times

Molecule: Cc1cc(-c2cccc(N3CCN(c4ccc(NS(=O)(=O)c5ccc(N[C@H](CCN(C)C)CSc6ccccc6)c([N+](=O)[O-])c5)cc4)CC3)c2)c(-c2ccc(Cl)cc2)n1C [Compound 13, (R)-N-(4-(4-(3-(2-(4-Chlorophenyl)-1,5-dimethyl-1H-pyrrol-3-yl)phenyl)piperazin-1-yl)phenyl)-4-((4-(dimethylamino)-1-(phenylthio)butan-2-yl)amino)-3-nitrobenzenesulfonamide]
- times less potent than 12 in binding to Bcl-2 (Bcl-2 [8]): 100 times

Molecule: CCn1c(C)c(C(=O)O)c(-c2cccc(N3CCN(c4ccc(NS(=O)(=O)c5ccc(N[C@H](CCN(C)C)CSc6ccccc6)c([N+](=O)[O-])c5)cc4)CC3)c2)c1-c1ccc(Cl)cc1 [Compound 14, (R)-5-(4-Chlorophenyl)-4-(3-(4-(4-(4-((4-(dimethylamino)-1-(phenylthio)butan-2-yl)amino)-3-nitrophenylsulfonamido)phenyl)piperazin-1-yl)phenyl)-1-ethyl-2-methyl-1H-pyrrole-3-carboxylic acid]
- Cell death induction in H146 at 10 nM (H146 cell line [1]): induce robust cell death
- Cell death induction in H146 (H146 cell line [1]): effectively induce cell death in H146 in a dose-dependent manner
- Cleavage of caspase-3 and PARP in H146 (H146 cell line [2]): induce cleavage of caspase-3 and poly (ADP- ribose) polymerase (PARP) in a dose-dependent manner
- Release of cytochrome C and cleavage of PARP at 30 nM (H146 cancer cells): robust
- Release of cytochrome C from mitochondria in H146 cells (H146 cancer cells): induces a release of cytochrome C in a dose-dependent manner
- Tolerability in SCID mice (SCID mice): well tolerated
- Inhibition of tumor growth (H146 xenograft model): very effective in inhibition of tumor growth
- Maximum weight loss during the treatment (H146 xenograft model): < 10%
- Other signs of toxicity (H146 xenograft model): no other signs of toxicity observed
- Tumor regression during the treatment phase (H146 xenograft model): capable of achieving tumor regression

Molecule: Cc1c(C(=O)O)c(-c2cccc(N3CCN(c4ccc(NS(=O)(=O)c5ccc(N[C@H](CCN(C)C)CSc6ccccc6)c([N+](=O)[O-])c5)cc4)CC3)c2)c(-c2ccc(Cl)cc2)n1C(C)C [Compound 15, (R)-5-(4-Chlorophenyl)-4-(3-(4-(4-(4-((4-(dimethylamino)-1-(phenylthio)butan-2-yl)amino)-3-nitrophenylsulfonamido)phenyl)piperazin-1-yl)phenyl)-1-isopropyl-2-methyl-1H-pyrrole-3-carboxylic acid]
- Cell death induction in H146 at 10 nM (H146 cell line [1]): induce robust cell death
- Cell death induction in H146 (H146 cell line [1]): effectively induce cell death in H146 in a dose-dependent manner
- Cleavage of caspase-3 and PARP in H146 (H146 cell line [2]): induce cleavage of caspase-3 and poly (ADP- ribose) polymerase (PARP) in a dose-dependent manner
- Release of cytochrome C and cleavage of PARP at 30 nM (H146 cancer cells): robust
- Release of cytochrome C from mitochondria in H146 cells (H146 cancer cells): induces a release of cytochrome C in a dose-dependent manner
- Tolerability in SCID mice (SCID mice): toxic to the animals which had severe weight loss
- times more potent than compound 1 in cell growth inhibition ([9]; direct comparison): 10–100 times

Molecule: Cc1c(C(=O)O)c(-c2cccc(N3CCN(c4ccc(NS(=O)(=O)c5ccc(N[C@H](CCN(C)C)CSc6ccccc6)c([N+](=O)[O-])c5)cc4)CC3)c2)c(-c2ccc(Cl)cc2)n1C1CC1 [Compound 16, (R)-5-(4-Chlorophenyl)-1-cyclopropyl-4-(3-(4-(4-(4-((4-(dimethylamino)-1-(phenylthio)-butan-2-yl)amino)-3-nitrophenylsulfonamido)phenyl)piperazin-1-yl)phenyl)-2-methyl-1H-pyrrole-3-carboxylic acid]
- times less potent than 12 in binding to Bcl-2 (Bcl-2 [8]): 10 times

Molecule: (R)-5-(4-Chlorophenyl)-4-(3-(4-(4-(((4-((4-(dimethylamino)-1-(phenylthio)butan-2-yl)amino)phenyl)sulfonyl)carbamoyl)phenyl)piperazin-1-yl)phenyl)-1,2-dimethyl-N-(3-(4-methylpiperazin-1-yl)propyl)-1H-pyrrole-3-carboxamide [Compound 9]
- IC50 ([6]; read-out: Cell Growth Inhibition (IC50 ± SD) H146, H146): > 10 µM
- IC50 ([7]; read-out: Cell Growth Inhibition (IC50 ± SD) H1417, H1417): > 10 µM
- IC50 [11]: > 10 µM
